How the values were obtained:
[1] = target: VMAT2 (human platelet homogenate) (Homo sapiens (Human), UniProt Q05940); assay: Human VMAT2 Ki, slightly modified competition binding procedure (Table 11); details: 10 nM 3H-dihydrotetrabenazine;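 also: competition binding with 90 min incubation at 25 °C, after which filter-retained radioligand was measured by scintillation counting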
Protocol: Following incubation at 25° C. for 90 minutes, bound radioligand was collected by rapid filtration onto GF/B glass fiber filters using a Unifilter-96 Harvester (PerkinElmer). Filter plates were pre-treated with 0.1% polyethylenimine and allowed to dry overnight, and following harvesting the filter plates were washed with 800 d VMAT2 binding buffer. Bound radioligand was quantified by scintillation counting using a Topcount NXT (PerkinElmer).

[2] = In vitro human intestinal S9 hydrolysis assay (formation of compound 1-1); details: human intestinal S9, 1 uM, 37° C., up to 60 minutes

Sequence of VMAT2 (human platelet homogenate) (Q05940 whole entry): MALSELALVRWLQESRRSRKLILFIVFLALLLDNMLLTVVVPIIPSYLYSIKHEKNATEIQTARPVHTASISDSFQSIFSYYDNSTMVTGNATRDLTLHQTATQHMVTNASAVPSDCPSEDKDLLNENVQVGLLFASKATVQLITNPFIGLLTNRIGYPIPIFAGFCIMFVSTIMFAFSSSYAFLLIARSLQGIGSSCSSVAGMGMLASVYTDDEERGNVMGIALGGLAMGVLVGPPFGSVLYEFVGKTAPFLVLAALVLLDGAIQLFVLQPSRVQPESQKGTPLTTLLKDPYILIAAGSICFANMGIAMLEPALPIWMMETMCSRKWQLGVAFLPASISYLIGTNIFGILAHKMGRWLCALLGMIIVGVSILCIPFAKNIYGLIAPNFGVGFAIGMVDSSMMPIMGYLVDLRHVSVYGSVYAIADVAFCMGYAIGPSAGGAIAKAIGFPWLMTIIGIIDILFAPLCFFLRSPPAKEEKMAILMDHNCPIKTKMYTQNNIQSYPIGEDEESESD

Row | Compound | Ki [1] | S9 Assay (ability to form compound 1-1) [2]
1 | COc1cc2c(cc1OC)[C@H]1C[C@@H](COC(=O)N3CCN[C@H](C)C3)[C@H](CC(C)C)CN1CC2 [Compound 6-13, [(2R,3S,11bR)-9,10-dimethoxy-3-(2-methylpropyl)-1H,2H,3H,4H,6H,7H,11bH-pyrido[2,1-a]isoquinolin-2-yl]methyl (3R)-3-methylpiperazine-1-carboxylate] | < 10 nM | +
2 | COc1cc2c(cc1OC)[C@H]1C[C@@H](COC(=O)NC[C@@H](CC(=O)O)CC(C)C)[C@H](CC(C)C)CN1CC2 [Compound 5-19, (3R)-3-{[({[(2R,3S,11bR)-9,10-dimethoxy-3-(2-methylpropyl)-1H,2H,3H,4H,6H,7H,11bH-pyrido[2,1-a]isoquinolin-2-yl]methoxy}carbonyl)amino]methyl}-5-methylhexanoic acid] | 10 to 500 nM | +
3 | COc1cc2c(cc1OC)[C@H]1C[C@@H](COC(=O)[C@H]3CCCNC3)[C@H](CC(C)C)CN1CC2 [Compound 4-13, [(2R,3S,11bR)-9,10-dimethoxy-3-(2-methylpropyl)-1H,2H,3H,4H,6H,7H,11bH-pyrido[2,1-a]isoquinolin-2-yl]methyl (3S)-piperidine-3-carboxylate] | < 10 nM | +++
4 | COc1cc2c(cc1OC)[C@H]1C[C@@H](COC(=O)N3CCC(C(=O)O)CC3)[C@H](CC(C)C)CN1CC2 [Compound 5-52, 1-({[(2R,3S,11bR)-9,10-dimethoxy-3-(2-methylpropyl)-1H,2H,3H,4H,6H,7H,11bH-pyrido[2,1-a]isoquinolin-2-yl]methoxy}carbonyl)piperidine-4-carboxylic acid] | > 500 nM | +
5 | COc1cc2c(cc1OC)[C@H]1C[C@@H](COC(=O)C3CC3C(=O)O)[C@H](CC(C)C)CN1CC2 (stereo partly drawn) [Compound 3-4, 2-({[(2R,3S,11bR)-9,10-dimethoxy-3-(2-methylpropyl)-1H,2H,3H,4H,6H,7H,11bH-pyrido[2,1-a]isoquinolin-2-yl]methoxy}carbonyl)cyclopropane-1-carboxylic acid] | 10 to 500 nM | ++
6 | COc1cc2c(cc1OC)[C@H]1C[C@@H](COC(=O)NC3CCCCC3C(=O)O)[C@H](CC(C)C)CN1CC2 (stereo partly drawn) [Compound 5-41, 2-[({[(2R,3S,11bR)-9,10-dimethoxy-3-(2-methylpropyl)-1H,2H,3H,4H,6H,7H,11bH-pyrido[2,1-a]isoquinolin-2-yl]methoxy}carbonyl)amino]cyclohexane-1-carboxylic acid] | 10 to 500 nM | +
7 | COc1cc2c(cc1OC)[C@H]1C[C@@H](COC(=O)N3C[C@@H]4C[C@H]3CN4)[C@H](CC(C)C)CN1CC2 [Compound 6-10, [(2R,3S,11bR)-9,10-dimethoxy-3-(2-methylpropyl)-1H,2H,3H,4H,6H,7H,11bH-pyrido[2,1-a]isoquinolin-2-yI]methyl (1S,4S)-2,5-diazabicyclo[2.2.1]heptane-2-carboxylate] | < 10 nM | +
8 | COc1cc2c(cc1OC)[C@H]1C[C@@H](COC(=O)NC3(C(=O)O)CCCC3)[C@H](CC(C)C)CN1CC2 [Compound 5-39, 1-[({[(2R,3S,11bR)-9,10-dimethoxy-3-(2-methylpropyl)-1H,2H,3H,4H,6H,7H,11bH-pyrido[2,1-a]isoquinolin-2-yl]methoxy}carbonyl)amino]cyclopentane-1-carboxylic acid] | 10 to 500 nM | +++
9 | COc1cc2c(cc1OC)[C@H]1C[C@@H](COC(=O)N3CCN[C@@H](C(=O)O)C3)[C@H](CC(C)C)CN1CC2 [Compound 6-8, (2R)-4-({[(2R,3S,11bR)-9,10-dimethoxy-3-(2-methylpropyl)-1H,2H,3H,4H,6H,7H,11bH-pyrido[2,1-a]isoquinolin-2-yl]methoxy}carbonyl)piperazine-2-carboxylic acid] | 10 to 500 nM | +
10 | COc1cc2c(cc1OC)[C@H]1C[C@@H](COC(=O)N3CC4CCC(C3)N4)[C@H](CC(C)C)CN1CC2 [Compound 6-4, [(2R,3S,11bR)-9,10-dimethoxy-3-(2-methylpropyl)-1H,2H,3H,4H,6H,7H,11bH-pyrido[2,1-a]isoquinolin-2-yl]methyl 3,8-diazabicyclo[3.2.1]octane-3-carboxylate] | < 10 nM | +
11 | COc1cc2c(cc1OC)[C@H]1C[C@@H](COC(=O)C3CCCCC3C(=O)O)[C@H](CC(C)C)CN1CC2 (stereo partly drawn) [Compound 3-6, 2-({[(2R,3S,11bR)-9,10-dimethoxy-3-(2-methylpropyl)-1H,2H,3H,4H,6H,7H,11bH-pyrido[2,1-a]isoquinolin-2-yl]methoxy}carbonyl)cyclohexane-1-carboxylic acid] | 10 to 500 nM | ++
12 | COc1cc2c(cc1OC)[C@H]1C[C@@H](COC(=O)N3CCOC(CC(=O)O)C3)[C@H](CC(C)C)CN1CC2 (stereo partly drawn) [Compound 5-6, 2-[4-({[(2R,3S,11bR)-9,10-dimethoxy-3-(2-methylpropyl)-1H,2H,3H,4H,6H,7H,11bH-pyrido[2,1-a]isoquinolin-2-yl]methoxy}carbonyl)morpholin-2-yl]acetic acid] | > 500 nM | +
13 | COc1cc2c(cc1OC)[C@H]1C[C@@H](COC(=O)NC3C4CCC(C4)C3C(=O)O)[C@H](CC(C)C)CN1CC2 (stereo partly drawn) [Compound 5-40, 3-[({[(2R,3S,11bR)-9,10-dimethoxy-3-(2-methylpropyl)-1H,2H,3H,4H,6H,7H,11bH-pyrido[2,l-a]isoquinolin-2-yl]methoxy}carbonyl)amino]bicyclo[2.2.1]heptane-2-carboxylic acid] | 10 to 500 nM | +
14 | COc1cc2c(cc1OC)[C@H]1C[C@@H](COC(=O)N3CCC(C(=O)O)(N(C)C)CC3)[C@H](CC(C)C)CN1CC2 [Compound 5-43, 1-({[(2R,3S,11bR)-9,10-dimethoxy-3-(2-methylpropyl)-1H,2H,3H,4H,6H,7H,11bH-pyrido[2,1-a]isoquinolin-2-yl]methoxy}carbonyl)-4-(dimethylamino)piperidine-4-carboxylic acid] | > 500 nM | +
15 | COc1cc2c(cc1OC)[C@H]1C[C@@H](COC(=O)NC3(C(=O)O)CC3)[C@H](CC(C)C)CN1CC2 [Compound 5-5, 1-[({[(2R,3S,11bR)-9,10-dimethoxy-3-(2-methylpropyl)-1H,2H,3H,4H,6H,7H,11bH-pyrido[2,1-a]isoquinolin-2-yl]methoxy}carbonyl)amino]cyclopropane-1-carboxylic acid] | 10 to 500 nM | +

Next, values leading:

Row | Ki [1] | S9 Assay (ability to form compound 1-1) [2] | Compound
16 | < 10 nM | ++ | COc1cc2c(cc1OC)[C@H]1C[C@@H](COC(=O)CCCN)[C@H](CC(C)C)CN1CC2 [Compound 4-31, [(2R,3S,11bR)-9,10-dimethoxy-3-(2-methylpropyl)-1H,2H,3H,4H,6H,7H,11bH-pyrido[2,1-a]isoquinolin-2-yl]methyl 4-aminobutanoate]
17 | < 10 nM | + | COc1cc2c(cc1OC)[C@H]1C[C@@H](COC(=O)C[C@H]3CCNC3)[C@H](CC(C)C)CN1CC2 [Compound 4-38, [(2R,3S,11bR)-9,10-dimethoxy-3-(2-methylpropyl)-1H,2H,3H,4H,6H,7H,11bH-pyrido[2,1-a]isoquinolin-2-yl]methyl 2-[(3R)-pyrrolidin-3-yl]acetate]
18 | > 500 nM | +++ | COc1cc2c(cc1OC)[C@H]1C[C@@H](COC(=O)CCCCC(=O)O)[C@H](CC(C)C)CN1CC2 [Compound 3-10]
19 | 10 to 500 nM | +++ | COc1cc2c(cc1OC)[C@H]1C[C@@H](COC(=O)CCCC(=O)O)[C@H](CC(C)C)CN1CC2 [Compound 3-8, 5-{[(2R,3S,11bR)-9,10-dimethoxy-3-(2-methylpropyl)-1H,2H,3H,4H,6H,7H,11 bH-pyrido[2,1 a]isoquinolin-2-yl]methoxy}-5-oxopentanoic acid]
20 | 10 to 500 nM | + | COc1cc2c(cc1OC)[C@H]1C[C@@H](COC(=O)N[C@@H](C)C(=O)O)[C@H](CC(C)C)CN1CC2 [Compound 5-47, (2S)-2-[({[(2R,3S,11bR)-9,10-dimethoxy-3-(2-methylpropyl)-1H,2H,3H,4H,6H,7H,11bH-pyrido[2,1-a]isoquinolin-2-yl]methoxy}carbonyl)amino]propanoic acid]
21 | 10 to 500 nM | ++ | COc1cc2c(cc1OC)[C@H]1C[C@@H](COC(=O)N(C)CC(=O)O)[C@H](CC(C)C)CN1CC2 [Compound 5-42, 2-[({[(2R,3S,11bR)-9,10-dimethoxy-3-(2-methylpropyl)-1H,2H,3H,4H,6H,7H,11bH-pyrido[2,1-a]isoquinolin-2-yl]methoxy}carbonyl)(methyl)amino]acetic acid]
22 | 10 to 500 nM | + | COc1cc2c(cc1OC)[C@H]1CC(COC(=O)CC(C)(C)C(=O)O)[C@H](CC(C)C)CN1CC2 (stereo partly drawn) [Compound 3-7, 4-{[(3S,11bR)-9,10-dimethoxy-3-(2-methylpropyl)-1H,2H,3H,4H,6H,7H,11bH-pyrido[2,1-a]isoquinolin-2-yl]methoxy}-2,2-dimethyl-4-oxobutanoic acid]
23 | < 10 nM | ++ | COc1cc2c(cc1OC)[C@H]1C[C@@H](COC(=O)[C@@H]3CCNC3)[C@H](CC(C)C)CN1CC2 [Compound 4-26, [(2R,3S,11bR)-9,10-dimethoxy-3-(2-methylpropyl)-1H,2H,3H,4H,6H,7H,11bH-pyrido[2,1-a]isoquinolin-2-yl]methyl (3R)-pyrrolidine-3-carboxylate]
24 | > 500 nM | + | COc1cc2c(cc1OC)[C@H]1C[C@@H](COC(=O)NC(C)CC(=O)O)[C@H](CC(C)C)CN1CC2 (stereo partly drawn) [Compound 5-26, 3-[({[(2R,3S,11bR)-9,10-dimethoxy-3-(2-methylpropyl)-1H,2H,3H,4H,6H,7H,11bH-pyrido[2,1-a]isoquinolin-2-yl]methoxy}carbonyl)amino]butanoic acid]

Reference: patent US11053242B2, “[9,10-dimethoxy-3-(2-methylpropyl)-1H,2H,3H,4H,6H,7H,11BH-pyrido-[2,1-a]isoquinolin-2-yl]methanol and compounds, compositions and methods relating thereto” (Neurocrine Biosciences, Inc., priority 2015, dated 2021)
